Legend:
plasmid DNA [1] = test: Bligh and Dyer extraction: DNA partitioning between aqueous and organic phase; format: physicochemical; conditions: for amount of lipid for complete partitioning of the DNA into the organic phase: preformed liposomes; for DNA partitioning into the organic phase versus charge ratio: polyvalent lipids compared with monovalent cationic lipids; for DNA partitioning: nonlipid cations, charge ratios up to and in excess of 4
Experimental: […] This mixture of solvents and water is equivalent to that used in the preparation of a Bligh and Dyer monophase (Bligh and Dyer, Can. J. Biochem. Physiol. 37:91-97 (1959)). Typically, DNA was added to achieve a final concentration of […] in solution while lipid was added at various concentrations. Trace quantities of 3H-plasmid DNA were added such that 2000 to 4000 dpm were present per 10 g unlabelled DNA. The reaction mixtures were incubated at room temperature for 30 min in a total volume of 1 mL. Subsequently the Bligh and Dyer monophase was partitioned into a two phase system by the addition of water and chloroform (250 L each). The samples were mixed by vortexing and the separation of the lower organic and upper aqueous phases was facilitated by centrifugation at 2000 rpm for 5 min at room temperature. The aqueous phase was removed and retained for scintillation counting. The solvent phase was dried using a stream of nitrogen gas, and the resulting film was resuspended in SOLVABLE solubilizing agent (Dupont NEN, Boston, Mass., USA) and incubated at 50° C. for 1 hour. […] PICOFLUOR scintillant (Canberra Packard, Meriden, Conn., USA) was added to all samples and the radioactivity (3H-DNA) was measured using a Packard TR 1900 Scintillation Counter (Canberra Packard).
Assays evaluating the stability of charge-neutralized, lipid-nucleic acid complexes were done in the presence of varying concentration of NaCl and OGP. Briefly, cationic lipid-nucleic acid complexes were prepared under conditions where 100% of the plasmid was expected to be recovered in the organic phase. NaCl or OGP was then added to the monophase system and incubations carried out at room temperature for 15 min. Bligh and Dyer extractions were performed as described above. The binding of calcium, L-lysine, and poly-L-lysine to the plasmid was evaluated using a modification of the above procedure. These nonlipid cationic materials were dissolved at various concentrations in sterile distilled water and incubated with the plasmid ([…] final concentration in water) at room temperature for 30 min in a final volume of 250 L. Reaction volumes were adjusted to 1 mL with chloroform:methanol (1:2.1) to produce a monophase. Bligh and Dyer extractions were then performed as described.

plasmid DNA [2] = test: Agarose gel electrophoresis: DNA mobility; format: physicochemical
Experimental: Complexes involving plasmid and poly-L-lysine were formed at a nucleic acid concentration of 10 µg/mL and a 1:1 charge ratio in the presence of 100 mM OGP. Complexes involving the cationic lipid DODAC and plasmid were formed at a plasmid concentration of 10 µg/mL and increasing concentrations of DODAC (10 to 320 nmoles/mL). The mixtures were incubated at room temperature for 30 min prior to loading onto a 0.8% agarose gel. Electrophoresis was carried out in TBE buffer according to standard techniques (Sambrook, et al., Molecular Cloning: A Laboratory Manual, Second Edition, Cold Spring Harbor, N.Y. (1989)). Nucleic acids were visualized after staining the gel with ethidium bromide ([…], 20 min) by photography with UV transillumination.

[3] = Plasmid encapsulation (protection from external medium) by anion exchange chromatography on DEAE Sepharose CL-6B; format: physicochemical; conditions: for cationic lipid concentration required for optimal plasmid encapsulation: detergent dialysis
Experimental: The extent of encapsulation or protection of the plasmid from the external medium was assessed by anion exchange chromatography as follows: a 50 μl aliquot of each sample was eluted on a DEAE Sepharose CL-6B column and the fractions were assessed for both ^3H-plasmid and ^14C-lipid by scintillation counting. Any exposed negative charges, such as those present on DNA molecules will bind-to the anion exchange column and will not elute with the ^14C-lipid. DNA which has its negative charge, “protected” or non-exposed will not bind to the anion exchange resin and will elute with the ^14C-lipid. Alternatively, plasmid DNA was measured using the indicator dye, PicoGreen®.

plasmid DNA [4] = conditions: DNA condensed by addition of polylysine (Reimer et al., 1995); cited from earlier work
plasmid DNA [5] = test: TO-PRO-1 dye intercalation assay (DNA condensation); format: physicochemical; conditions: Bligh and Dyer monophase; 1 μM TO-PRO-1; 533 nm
Experimental: The fluorochrome TO-PRO-1 was used to evaluate the state of condensation of the plasmid in the charge-neutralized lipid-nucleic acid complex. TO-PRO-1 was used in this study due to its stable intercalation into the plasmid as well as the high sensitivity in the fluorescence detection compared with the more common intercalator ethidium bromide (see, Hirons, et al., Cytometry 15:129-140 (1994)). Plasmid was dissolved in either the Bligh and Dyer monophase or in 100 mM OGP. Poly-L-lysine or DODAC were each added to 10 g plasmid at a 1:1 charge ratio.
Evaluation of the hydrophobic, charge-neutralized lipid-nucleic acid complexes was carried out by assessing the ability of a small fluorescent probe to bind to the nucleic acid in the complex. […] TO-PRO-1 was then added to a final concentration of 1 μM and fluorescence was measured at 533 nm (probe excitation at 509 nm). […] However, when plasmid DNA was added (10 μg/mL) there was a >600 fold increase in fluorescence at 533 nm. […]
The fluorochrome (TO-PRO-1) was used to evaluate the state of condensation of the DNA in the lipid-nucleic acid particle. […] To measure fluorescence, spectrofluorometric measurements were performed using a Luminescence Spectrometer 50B (Perkin Elmer Ltd., Buckinghamshire, England) with an excitation wavelength of 509 nm and an emission wavelength of 533 nm. […]

With `CCCCCCCCCCCCCCCCCCN(CCCCCCCCCCCCCCCCCC)C(=O)CNC(=O)C(CCCNCCCN)NCCCN` (stereo not drawn) [DOGS] the “amount of lipid for complete partitioning of the DNA into the organic phase” value (plasmid DNA [1]; 10 μg DNA) was “approximately 10 nmoles” and the “DNA partitioning into the organic phase versus charge ratio” value (plasmid DNA [1]) was “a slightly greater charge ratio was required”.
With `CCCCCCCC/C=C\CCCCCCCC[N+](C)(C)CCCCCCCC/C=C\CCCCCCCC.[Cl-]` [DODAC, N,N-dioleyl-N,N-dimethylammonium chloride] the “DNA partitioned into the organic phase” value (plasmid DNA [1]; 10 μg DNA, 40 nmoles DODAC, OGP up to 20 mM) was “greater than 99%”, the “DNA mobility in agarose gel” value (plasmid DNA [2]; addition of 320 nmoles of DODAC) was “decrease in DNA migrating into the gel” and the “cationic lipid concentration required for optimal plasmid encapsulation” value (“cationic lipid concentration required” below) [3] was 8%.
For `[Ca+2].[Cl-].[Cl-]` [calcium, calcium chloride], the DNA partitioning (plasmid DNA [1]) was “majority of the DNA was invariably recovered in the aqueous phase”.
For `CCCCCCCCCCCCCCOCC(C[N+](C)(C)CCO)OCCCCCCCCCCCCCC.[Br-]` (stereo not drawn) [DMRIE, N-(1,2-dimyristyloxyprop-3-yl)-N,N-dimethyl-N-hydroxyethyl ammonium bromide], the “cationic lipid concentration required” value [3] was 8%.
For `CCCCCCCC/C=C\CCCCCCCCOCC(C[N+](C)(C)C)OCCCCCCCC/C=C\CCCCCCCC.[Cl-]` (stereo not drawn) [DOTMA, N-(1-(2,3-dioleyloxy)propyl)-N,N,N-trimethylammonium chloride], the “cationic lipid concentration required” value [3] was 6.5%.
In the case of “1-O-(2′-(ω-methoxypolyethyleneglycol)succinoyl)-2-N-myristoyl-sphingosine [PEG-C14]”, the “PEG-C14 concentration giving best entrapment” value ([3]; 7.5% DODAC and DOPE, dialysis method) was 10 mol %.
For `CCCCCCCCCCCCCCCCCC[N+](C)(C)CCCCCCCCCCCCCCCCCC.[Cl-]` [DSDAC], the “cationic lipid concentration required” value [3] was 6.5%.
For `CCCCCCCC/C=C\CCCCCCCCOCC(C[N+](C)(C)CCNC(=O)C(CCCNCCCN)NCCCN)OCCCCCCCC/C=C\CCCCCCCC.O=C([O-])C(F)(F)F` (stereo not drawn) [DOSPA, N-(-(2,3-dioleyloxy)propyl)-N-(2-(sperminecarboxamido)ethyl)-N,N-dimethylammonium trifluoroacetate], the “amount of lipid for complete partitioning of the DNA into the organic phase” value (plasmid DNA [1]; 10 μg DNA) was “approximately 10 nmoles”, the “stability of complex in presence of NaCl” value (plasmid DNA [1]; Na+ in a 300-fold molar excess) was “did not cause partitioning” and the “DNA partitioning into the organic phase versus charge ratio” value (plasmid DNA [1]) was “a slightly greater charge ratio was required”.
In the case of “poly L-lysine hydrobromide [poly-L-lysine]”, the DNA partitioning (plasmid DNA [1]) is listed as “majority of the DNA was invariably recovered in the aqueous phase”, the condensation index (plasmid DNA [4]) is listed as “≈ 1.0” and the “TO-PRO-1 fluorescence / binding to DNA” value (plasmid DNA [5]) is listed as “no fluorescence was observed”. The “DNA mobility in agarose gel” value (plasmid DNA [2]; 1:1 charge ratio, 100 mM OGP) was “significantly reduced mobility”.
With `NCCCC[C@H](N)C(=O)O` [lysine, L-lysine] the DNA partitioning (plasmid DNA [1]) was “majority of the DNA was invariably recovered in the aqueous phase”.
